Measurements from patent US10532085B2, “Methods for increasing intracellular activity of Hsp70” (Orphazyme A/S, priority 2010, dated 2020).

Columns and labels:
[1] = test system: U-2-OS osteosarcoma cells; assay: Uptake and localization of fluorochrome-labeled recombinant protein; format: cell-based, Human; conditions: 300 nM rHsp70-AF488, 24 h
Protocol: FIG. 2: Lysosomal Hsp70 stabilizes lysosomal membranes. (a) Representative confocal images of U-2-OS cells incubated with 300 nM rHsp70-AF488 (green) for 24 h, fixed and stained for lysosomal integral membrane protein-1 (LIMP-1; red). For co-localization with other organelle markers see FIG. 3. (b) U-2-OS cells were incubated with 300 nM rHsp70-AF488 for 24 h before quantification of rHsp70-AF488 in membranes (memb.) and supernatant (sup.) obtained by repeated freeze/thaw cycles and centrifugation the light membrane fraction (LMF). […] (c) Representative still images of U-2-OS cells exposed to photo-oxidation (acridine orange and blue light). The loss of lysosomal integrity is visualized by the loss of red and increase in green staining. (d and e) U-2-OS cells were incubated with indicated recombinant proteins (300 nM) for 24 h, and analyzed for lysosomal integrity upon photo-oxidation. When indicated, cells were treated with indicated siRNAs for 48 h prior to the addition of recombinant proteins (e). The values represent means±SD (standard deviation) for three (d) or five (e) independent experiments. Representative immunoblots of indicated proteins from U-2-OS cells left untreated or treated with control or Hsp70 siRNAs are shown on the right. Scale bars: 20 μm (a and c).
FIG. 3: Colocalization of endocytosed rHsp70-AF488 with lysosomes. […]

NPC−/− mice [2] = assay: NPC1 in vivo pilot study: organ weights; conditions: 10 mg/kg IP three times per week; sacrificed at 7 or 9 weeks old
Protocol: (§1) Eight treated (rHSP70) NPC^−/− versus eight control (PBS only) NPC^−/− controls. Mice were treated IP three times per week with either 10 mg/kg of rHSP70 or vehicle alone (PBS) from 3 weeks of age. Three control and three treated mice were sacrificed at 7 or 9 weeks old (i.e. after 4 or 6 weeks of treatment, respectively). Organs were perfused (PBS), weighed and frozen for biochemical and immunohistochemical analysis.

NPC−/− mice [3] = assay: NPC1 in vivo pilot study: video recording and observation of condition; conditions: 10 mg/kg IP three times per week
Protocol: as §1
Due to the small number of animals remaining after the 7 and 9 week time points we were unable to draw any conclusions regarding increased survival.

NPDA cells = assay: Volume of the lysosomal compartment in NPDA cells; format: cell-based, Human
Source text: BMP binds ASM with high affinity and stimulates its ability to hydrolyze sphingomyelin to ceramide and phosphorylcholine. […] In order to test whether ASM is responsible for the lysosome stabilizing effect we treated the cells with desipramine, a well characterized pharmacological ASM inhibitor. […] It should be noted that akin to rHsp70, also rASM localized to the lysosomes.
Primary antibodies used included mouse monoclonal antibodies against Hsp70 (2H9; kindly provided by Boris Margulis, Russian Academy of Sciences, St. Petersburg, Russia), glyceraldehyde-3-phosphate dehydrogenase (GAPDH; Biogenesis), BMP (6C4), lysosomal integral membrane protein-1 (H5C6; developed by J. Thomas August and James E. K. Hildreth and obtained from the Developmental Studies Hybridoma Bank developed under the auspices of the NICHD and maintained by The University of Iowa, Department of Biological Sciences, Iowa City, USA). Proteins separated by 10% SDS-PAGE and transferred to a nitrocellulose membrane were detected by using indicated primary antibodies, appropriate peroxidase-conjugated secondary antibodies from Dako, ECL Western blotting reagents (Amersham), and Luminescent Image Reader (LAS-1000Plus, Fujifilm). For immunocytochemistry Alexa […] or Alexa Fluor®-488-conjugated secondary antibodies were used. […] Fluorescence images were taken using a Zeiss Axiovert 100M laser scanning microscope. […]

[4] = video recording at 9 and 10 weeks

Question: “rHsp70: recombinant (human) heat shock protein 70; in some tests labelled with Alexa Fluor 488” was tested. Which “uptake, co-localization and membrane binding” value [1] did it give?
Answer: effective uptake of rHsp70, its specific co-localization with late endosomal and lysosomal markers and binding to lysosomal membranes

Question: What about the organ weights (NPC−/− mice [2]) of the same substance?
Answer: No differences

Question: What about the “condition at the point of culling” value (NPC−/− mice [3]) of the same substance?
Answer: deteriorated quite badly within the space of a few days

Question: And the “activity and tremor on video” value (NPC−/− mice [3]; [4])?
Answer: more active and had increased tremor

Question: And the “size and coat condition” value (NPC−/− mice [3]; [4])?
Answer: larger, with better coat condition

Question: What about the “volume of the enlarged lysosomal compartment in NPDA cells” value (NPDA cells) of the same substance?
Answer: normalize the volume
